Earlier results on 1 molecule are cited in EP3796908B1, “CONTROLLED RELEASE PROPIVERINE FORMULATIONS” (Santa Farma Ilaç Sanayi A.S., priority 2018, dated 2020).

Structures are written as SMILES. Like-named read-outs stand apart in the source and are kept apart here.

For data set [1] the following is noted: BCS classification.
For data set [2] the following is noted: for maximal plasma concentrations reached after / mean absolute bioavailability: oral administration.
The mark [3] stands for this setting: administration of the ER capsule.

Regarding `CCCOC(C(=O)OC1CCN(C)CC1)(c1ccccc1)c1ccccc1` [propiverine, 1-methyl-4-piperidyl diphenylpropoxy acetate], the solubility result in data set [1] is “high solubility”. Moreover, in data set [2] (setting [3]), the “mean Cmax” value was “about 70 ng/ml” and the “time in which Cmax is reached after administration” value is ≤ 9.5 h. Further, in data set [2] (immediate release), the “maximal plasma concentrations reached after” value is 2.3 h and the mean absolute bioavailability is 40.5%. For the same molecule, in data set [2] (modified release), the “maximal plasma concentrations reached after” value was 9.9 h and the mean absolute bioavailability is on record as 60.8 ± 17.3%.
